Three compounds from patent US20250179047A1, “5-[7-(3,4-DIHYDRO-1H-ISOQUINOLINE-2-CARBONYL)-1,2,3,4 TETRAHYDROISOQUINOLIN-6-YL]-1H-PYRROLE-3-CARBOXAMIDE DERIVATIVES, PHARMACEUTICAL COMPOSITIONS CONTAINING THEM AND THEIR USES AS PRO-APOPTOTIC AGENTS” (LES LABORATOIRES SERVIER, priority 2022, published 2025) can be followed below.

For one test, the system named is KMS-12-PE Bcl-2 G101V. The test can be described thus: In vitro cytotoxicity CellTiter-Glo 48 h, KMS-12-PE Bcl-2 G101V. Format: cell-based. As to conditions: for Ratio (G101V/WT): C50 KMS-12-PE Bcl-2 G101V over C50 KMS-12-PE Bcl-2 WT; for IC50: Homo sapiens, KMS-12-PE, 48 h, CellTiter-Glo, C50 = concentration needed to reach 50% of the cellular viability. In a few lines:
(§1)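 KMS-12-PE myeloma cells lentivirally transduced with Bcl-2 WT or G101V (TagRFP-sorted), exposed to compound 11-point dose-response for 48 h at 37 °C, 5% CO2. Viability read by CellTiter-Glo ATP luminescence; C50 is the concentration giving 50% cellular viability.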
A general note: In ATP-based viability assays light output follows the ATP content of the culture.

The next test addresses BCL2 F104I (Homo sapiens, UniProt P10415, F104I). As to the kind of experiment: TR-FRET competitive binding assay, BCL2 F104I. The settings on record: Ki determined from IC50, read-out: TR_FRET EKI_Bcl2 F104I. In a few lines: (§2)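 Competitive TR-FRET displacement of fluorescein-PUMA peptide (2 or 20 nM) from 0.5 nM terbium-labelled N-terminal Halo-fusion BCL2 (1-207, wild type or mutant) or BCLXL (2-196), expressed in E. coli. Buffer 50 mM Hepes pH 7.5, 150 mM NaCl, 5% DMSO; 2 h at 23°C. 520/495 nm ratio fitted over 11 points for IC50, converted to Ki.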
In general terms: TR-FRET usually uses a lanthanide donor and a delayed reading to cut background.

For test [1], the system named is BCL2 G101V. The test can be described thus: TR-FRET competitive binding assay, BCL2 G101V. As to conditions: ratio Ki BCL2 G101V / Ki BCL2 WT. On the set-up: species or system human. Summed up: as §2
Test [2] addresses BCL2 G101V (Homo sapiens, UniProt P10415, G101V). As to the kind of experiment: TR-FRET competitive binding assay, BCL2 G101V. As to conditions: BCL2 G101V; Ki determined from IC50; read-out: TR_FRET EKI_Bcl2 G101V. In a few lines:
as §2

Another test has as its target BCL2 D103Y (Homo sapiens, UniProt P10415, D103Y). The test can be described thus: TR-FRET competitive binding assay, BCL2 D103Y. As to conditions: Ki determined from IC50, read-out: TR_FRET EKI_Bcl2 D103Y. Summed up: as §2
A further test concerns the target BCL2 WT (Homo sapiens (Human), UniProt P10415). As to the kind of experiment: TR-FRET competitive binding assay, BCL2 WT. The settings on record: Ki determined from IC50, read-out: TR_FRET EKI_Bcl2 WT. Summed up:
as §2

A further test relates to KMS-12-PE Bcl-2 WT. As to the kind of experiment: In vitro cytotoxicity CellTiter-Glo 48 h, KMS-12-PE Bcl-2 WT. Format: cell-based. The settings on record: Homo sapiens, KMS-12-PE, C50 = concentration needed to reach 50% of the cellular viability. In a few lines: as §1
A further test deals with BCLXL WT (Homo sapiens (Human), UniProt Q07817). The test can be described thus: TR-FRET competitive binding assay, BCLXL WT. The settings on record: for Ki: BCLXL WT, Ki determined from IC50, read-out: TR_FRET EKI BclxL; for TR_FRET EKI BCLxL/WT selectivty ratio: ratio Ki BCLxL / Ki BCL2 WT. Summed up: as §2
The target of the next test is BCL2 D111A (Homo sapiens, UniProt P10415, D111A). The test can be described thus: TR-FRET competitive binding assay, BCL2 D111A. As to conditions: Ki determined from IC50, read-out: TR_FRET EKI_Bcl2 D111A. In a few lines: as §2

Chain of BCLXL WT (Q07817 other isoform, or with tags, fused parts or gaps): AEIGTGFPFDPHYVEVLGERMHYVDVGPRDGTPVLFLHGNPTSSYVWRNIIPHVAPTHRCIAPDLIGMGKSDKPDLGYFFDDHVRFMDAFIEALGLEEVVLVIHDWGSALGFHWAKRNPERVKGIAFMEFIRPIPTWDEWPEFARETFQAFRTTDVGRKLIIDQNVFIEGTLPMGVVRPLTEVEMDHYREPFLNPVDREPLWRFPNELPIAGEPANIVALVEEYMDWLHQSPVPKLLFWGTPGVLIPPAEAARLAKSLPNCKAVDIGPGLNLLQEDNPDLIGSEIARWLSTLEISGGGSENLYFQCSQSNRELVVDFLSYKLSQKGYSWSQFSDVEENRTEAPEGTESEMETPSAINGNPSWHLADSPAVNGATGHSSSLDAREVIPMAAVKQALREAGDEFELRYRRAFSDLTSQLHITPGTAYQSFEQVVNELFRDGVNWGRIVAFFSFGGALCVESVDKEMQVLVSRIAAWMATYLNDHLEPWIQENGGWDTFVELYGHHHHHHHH

Take `COc1ncc(N(C(=O)c2cc(-c3cc4c(cc3C(=O)N3Cc5ccccc5C[C@H]3C)CN(C(=O)Cc3ccc(OCCN5CCOCC5)cc3)CC4)n(C)c2C)c2ccc(O)cc2)cc1F` [Example 72, N-(5-fluoro-6-methoxypyridin-3-yl)-N-(4-hydroxyphenyl)-1,2-dimethyl-5-(7-{[(3R)-3-methyl-3,4-dihydro-1H-isoquinolin-2-yl]carbonyl}-2-(2-{4-[2-(morpholin-4-yl)ethoxy]phenyl}acetyl)-3,4-dihydro-1H-isoquinolin-6-yl)pyrrole-3-carboxamide]: the “Ratio (G101V/WT)” value in the test with KMS-12-PE Bcl-2 G101V was found to be 6.42. For the same compound, the IC50 in the test on KMS-12-PE Bcl-2 G101V was 0.0427 µM; in the test on KMS-12-PE Bcl-2 WT it was 0.0066 µM. Also, the Ki at BCL2 F104I was found to be 1.17 nM; at BCL2 G101V [2], 0.9 nM; at BCL2 D103Y, 0.37 nM; on BCL2 WT, 0.14 nM; on BCLXL WT, 3.7 nM; at BCL2 D111A, 0.21 nM. The “TR_FRET EKI G101V/WT selectivty ratio” value in the test on BCL2 G101V [1] worked out at 6.1. Further, the “TR_FRET EKI BCLxL/WT selectivty ratio” value at BCLXL WT turned out to be 26.4.
For `Cc1c(N(C(=O)c2cc(-c3cc4c(cc3C(=O)N3Cc5ccccc5C[C@H]3CCN3CCCCC3)CN(C(=O)Cc3ccc(OCCN5CCOCC5)cc3F)CC4)n(C)c2C)c2ccc(O)cc2)cc(C#N)n1C` [Example 74, N-(5-cyano-1,2-dimethyl-1H-pyrrol-3-yl)-5-[2-(2-{2-fluoro-4-[2-(morpholin-4-yl)ethoxy]phenyl}acetyl)-7-[(3S)-3-[2-(piperidin-1-yl)ethyl]-1,2,3,4-tetrahydroisoquinoline-2-carbonyl]-1,2,3,4-tetrahydroisoquinolin-6-yl]-N-(4-hydroxyphenyl)-1,2-dimethyl-1H-pyrrole-3-carboxamide], the “Ratio (G101V/WT)” value in the test with KMS-12-PE Bcl-2 G101V was 2.36. In addition, the IC50 came out at 0.0885 µM in the test with KMS-12-PE Bcl-2 G101V and 0.0375 µM with KMS-12-PE Bcl-2 WT. Moreover, the Ki stood at 0.04 nM at BCL2 F104I; 0.1 nM on BCL2 G101V [2]; 0.07 nM on BCL2 D103Y; 0.02 nM on BCL2 WT; 1.1 nM on BCLXL WT; 0.09 nM at BCL2 D111A. Also, the “TR_FRET EKI G101V/WT selectivty ratio” value in the test on BCL2 G101V [1] was 2.8. For the same compound, the “TR_FRET EKI BCLxL/WT selectivty ratio” value on BCLXL WT stood at 52.4.
Turning to `COc1ccc(N(C(=O)c2cc(-c3cc4c(cc3C(=O)N3Cc5ccccc5C[C@H]3C)CN(C(=O)Cc3ccc(OCCN5CCOCC5)cc3)CC4)n(C)c2C)c2ccc(O)cc2)cc1C#N` [Example 81, N-(3-cyano-4-methoxyphenyl)-N-(4-hydroxyphenyl)-1,2-dimethyl-5-(7-{[(3R)-3-methyl-3,4-dihydro-1H-isoquinolin-2-yl]carbonyl}-2-(2-{4-[2-(morpholin-4-yl)ethoxy]phenyl}acetyl)-3,4-dihydro-1H-isoquinolin-6-yl)pyrrole-3-carboxamide], the “Ratio (G101V/WT)” value with KMS-12-PE Bcl-2 G101V came out at 5.6429. The figures for the IC50 in the test with KMS-12-PE Bcl-2 G101V and with KMS-12-PE Bcl-2 WT were 0.0395 µM and 0.007 µM, respectively. The Ki at BCL2 F104I is 0.52 nM; on BCL2 G101V [2], 0.6 nM; at BCL2 D103Y, 0.46 nM; on BCL2 WT it was 0.19 nM; on BCLXL WT, 5.3 nM; on BCL2 D111A it was 0.4 nM. Besides, the “TR_FRET EKI G101V/WT selectivty ratio” value in the test on BCL2 G101V [1] is 2.9. In addition, at BCLXL WT, the “TR_FRET EKI BCLxL/WT selectivty ratio” value was found to be 27.9.

Broadly, the IC50 is the concentration that inhibits the measured activity by half. Low values mean greater potency in that assay, high ones weaker potency in that assay.
